Earlier results in patent US20240358692A1, “TREATMENT OF SCLERODERMA” (Aisa Pharma, Inc., priority 2023, published 2024).

Details: oral dosing; cited from earlier work

CCOC(=O)C1=C(COCCN)NC(C)=C(C(=O)OC)C1c1ccccc1Cl (stereo not shown) [amlodipine]
time to achieve maximal plasma concentrations (Tmax): 10 h
